Results as given in patent US7429585B2, “Phenyl-piperazine methanone derivatives, substituted by heterocyclic groups” (Hoffmann-La Roche, priority 2004, dated 2008).

Each compound was assayed against T1, mGlyT-1b (Mus musculus, UniProt P28571) (assay: Glycine uptake inhibition assay (mGlyT-1b)). Settings: inhibition of [3H]-glycine uptake in Flp-in-CHO cells transfected with mGlyT-1b cDNA.
T1 construct: host or cells: Flp-in-CHO
T1 sequence (P28571 1-651 isoform P28571-2): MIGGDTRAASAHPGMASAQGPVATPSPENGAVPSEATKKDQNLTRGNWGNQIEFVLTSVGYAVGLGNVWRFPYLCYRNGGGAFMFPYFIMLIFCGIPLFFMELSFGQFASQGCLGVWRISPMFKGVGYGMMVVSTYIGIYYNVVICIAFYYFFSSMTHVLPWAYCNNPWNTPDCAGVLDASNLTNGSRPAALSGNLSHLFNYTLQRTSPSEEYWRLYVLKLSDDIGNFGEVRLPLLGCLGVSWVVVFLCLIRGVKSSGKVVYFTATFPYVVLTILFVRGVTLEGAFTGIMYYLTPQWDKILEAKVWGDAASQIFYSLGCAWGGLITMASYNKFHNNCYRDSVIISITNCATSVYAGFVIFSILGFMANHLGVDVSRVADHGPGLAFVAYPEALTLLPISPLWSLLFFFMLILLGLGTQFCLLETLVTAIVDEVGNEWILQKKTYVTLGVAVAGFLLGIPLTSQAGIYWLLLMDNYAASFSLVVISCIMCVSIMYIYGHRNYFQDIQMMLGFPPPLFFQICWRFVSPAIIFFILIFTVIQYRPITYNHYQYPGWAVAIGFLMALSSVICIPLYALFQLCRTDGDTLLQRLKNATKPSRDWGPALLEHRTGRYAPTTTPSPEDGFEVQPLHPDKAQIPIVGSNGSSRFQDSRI
Format: cell-based
Experimental: DMEM complete medium: Nutrient mixture F-12 (Gibco Life-technologies), fetal bovine serum (FBS) 5%, (Gibco life technologies), Penicillin/Streptomycin 1% (Gibco life technologies), Hygromycin 0.6 mg/ml (Gibco life technologies), Glutamine 1 mM Gibco life technologies)
Uptake buffer (UB): 150 mM NaCl, 10 mM Hepes-Tris, pH 7.4, 1 mM CaCl2, 2.5 mM KCl, 2.5 mM MgSO4, 10 mM (+) D-glucose. Flp-in™-CHO (Invitrogen Cat n° R758-07)cells stably transfected with mGlyT1b cDNA.
Glycine Uptake Inhibition Assay (mGlyT-1b)
On day 1 mammalian cells, (Flp-in™-CHO), transfected with mGlyT-1b cDNA, were plated at the density of 40,000 cells/well in complex F-12 medium, without hygromycin in 96-well culture plates. On day 2, the medium was aspirated and the cells were washed twice with uptake buffer (UB). The cells were then incubated for 20 min at 22° C. with either (i) no potential competitor, (ii) 10 mM non-radioactive glycine, (iii) a concentration of a potential inhibitor. A range of concentrations of the potential inhibitor was used to generate data for calculating the concentration of inhibitor resulting in 50% of the effect (e.g. IC50, the concentration of the competitor inhibiting glycine uptake of 50%). A solution was then immediately added containing [^3H]-glycine 60 nM (11-16 Ci/mmol) and 25 μM non-radioactive glycine. The plates were incubated with gentle shaking and the reaction was stopped by aspiration of the mixture and washing (three times) with ice-cold UB. The cells were lysed with scintillation liquid, shaken 3 hours and the radioactivity in the cells was counted using a scintillation counter.

In order of falling IC50:
1. CC(C)Oc1ccc(S(C)(=O)=O)cc1C(=O)N1CCN(c2nsc3ccccc23)CC1 [Example 1.29, (4-Benzo [d]isothiazol-3-yl-piperazin-1-yl)-(2-isopropoxy-5-methanesulfonyl-phenyl) -methanone]  500 nM
2. O=C(c1cc([N+](=O)[O-])ccc1N1CCOCC1)N1CCN(c2nsc3ccccc23)CC1 [Example 1.31, (4-Benzo[d]isothiazol-3-yl-piperazin-1-yl)-(2-morpholin-4-yl-5-nitro-phenyl) -methanone]  467 nM
3. Cc1nc2cc(N3CCN(C(=O)c4cc(S(C)(=O)=O)ccc4OCC(C)C)CC3)ccc2s1 [Example 1.17, (2-Isobutoxy-5-methanesulfonyl-phenyl)-[4-(2-methyl-benzothiazol-5-yl)-piperazin-1-yl]-methanone]  440 nM
4. CS(=O)(=O)c1ccc(OC2CCCC2)c(C(=O)N2CCN(c3ccc4cc(Cl)ccc4n3)CC2)c1 [Example 1.22, [4-(6-Chloro-quinolin-2-yl)-piperazin-1-yl]-(2-cyclopentyloxy-5-methanesulfonyl-phenyl)-methanone]  399 nM
5. CC(C)Oc1ccc(S(C)(=O)=O)cc1C(=O)N1CCN(c2nc3ccc(Cl)cc3s2)CC1 [Example 1.2, [4-(6-Chloro-benzothiazol-2-yl)-piperazin-1-yl]-(2-isopropoxy-5-methanesulfonyl-phenyl)-methanone]  398 nM
6. CC(C)Oc1ccc(S(C)(=O)=O)cc1C(=O)N1CCN(c2nc3c([N+](=O)[O-])cccc3s2)CC1 [Example 1.12, (2-Isopropoxy-5-methanesulfonyl-phenyl)-[4-(4-nitro-benzothiazol-2-yl)-piperazin-1-yl]-methanone]  375 nM
7. CCOc1ccc2nc(N3CCN(C(=O)c4cc(S(C)(=O)=O)ccc4OC(C)C)CC3)sc2c1 [Example 1.15, [4-(6-Ethoxy-benzothiazol-2-yl)-piperazin-1-yl]-(2-isopropoxy-5-methanesulfonyl-phenyl)-methanone]  339 nM
8. CC(C)Oc1ccc(S(C)(=O)=O)cc1C(=O)N1CCN(c2cnc3ccccc3n2)CC1 [Example 1.24, (2-Isopropoxy-5-methanesulfonyl-phenyl)-(4-quinoxalin-2-yl-piperazin-1-yl)-methanone]  287 nM
9. O=C(c1cc([N+](=O)[O-])ccc1N1CCOCC1)N1CCN(c2nc3ccc(Cl)cc3s2)CC1 [Example 1.1, [4-(6-Chloro-benzothiazol-2-yl)-piperazin-1-yl]-(2-morpholin-4-yl-5-nitro-phenyl) -methanone]  271 nM
10. CS(=O)(=O)c1ccc(OCC2CC2)c(C(=O)N2CCN(c3nc4ccc(Cl)cc4s3)CC2)c1 [Example 1.39, [4-(6-Chloro-benzothiazol-2-yl)-piperazin-1-yl]-(2-cyclopropylmethoxy-5-methanesulfonyl-phenyl)-methanone]  230 nM
11. CC(C)Oc1ccc(S(C)(=O)=O)cc1C(=O)N1CCN(c2nc3cc(Cl)ccc3s2)CC1 [Example 1.14, [4-(5-Chloro-benzothiazol-2-yl)-piperazin-1-yl]-(2-isopropoxy-5-methanesulfonyl-phenyl)-methanone]  218 nM
12. CC(C)Oc1ccc(S(C)(=O)=O)cc1C(=O)N1CCN(c2nc3ccc([N+](=O)[O-])cc3s2)CC1 [Example 1.9, (2-Isopropoxy-5-methanesulfonyl-phenyl)-[4-(6-nitro-benzothiazol-2-yl)-piperazin-1-yl]-methanone]  206 nM
13. COc1ccc2nc(N3CCN(C(=O)c4cc(S(C)(=O)=O)ccc4OC(C)C)CC3)sc2c1 [Example 1.8, (2-Isopropoxy-5-methanesulfonyl-phenyl)-[4-(6-methoxy-benzothiazol-2-yl)-piperazin-1-yl]-methanone]  174 nM
14. CC(C)COc1ccc(S(C)(=O)=O)cc1C(=O)N1CCN(c2cnc3ccccc3n2)CC1 [Example 1.23, (2-Isobutoxy-5-methanesulfonyl-phenyl)-(4-quinoxalin-2-yl-piperazin-1-yl)-methanone]  167 nM
15. CC(C)Oc1ccc(S(C)(=O)=O)cc1C(=O)N1CCN(c2nc3c(O)cccc3s2)CC1 [Example 1.13, [4-(4-Hydroxy-benzothiazol-2-yl)-piperazin-1-yl]-(2-isopropoxy-5-methanesulfonyl-phenyl)-methanone]  158 nM
16. CS(=O)(=O)c1ccc(OC2CCCC2)c(C(=O)N2CCN(c3cnc4ccccc4c3)CC2)c1 [Example 1.28, (2-Cyclopentyloxy-5-methanesulfonyl-phenyl)-(4-quinolin-3-yl-piperazin-1-yl)-methanone]  149 nM
17. COc1cccc2sc(N3CCN(C(=O)c4cc(S(C)(=O)=O)ccc4OC(C)C)CC3)nc12 [Example 1.11, (2-Isopropoxy-5-methanesulfonyl-phenyl)-[4-(4-methoxy-benzothiazol-2-yl)-piperazin-1-yl]-methanone]  148 nM
18. CC(C)COc1ccc(S(C)(=O)=O)cc1C(=O)N1CCN(c2nc3ccccc3o2)CC1 [Example 1.5, (4-Benzoxazol-2-yl-piperazin-1-yl)-(2-isobutoxy-5-methanesulfonyl-phenyl)-methanone]  144 nM
19. CS(=O)(=O)c1ccc(OC2CCCC2)c(C(=O)N2CCN(c3nc4ccccc4o3)CC2)c1 [Example 1.4, (4-Benzoxazol-2-yl-piperazin-1-yl)-(2-cyclopentyloxy-5-methanesulfonyl-phenyl)-methanone]  97 nM
20. CC(C)COc1ccc(S(C)(=O)=O)cc1C(=O)N1CCN(c2cnc3ccccc3c2)CC1 [Example 1.27, (2-Isobutoxy-5-methanesulfonyl-phenyl)-(4-quinolin-3-yl-piperazin-1-yl)-methanone]  82 nM
21. CC(C)COc1ccc(S(C)(=O)=O)cc1C(=O)N1CCN(c2ccc3ccccc3n2)CC1 [Example 1.19, (2-Isobutoxy-5-methanesulfonyl-phenyl)-(4-quinolin-2-yl-piperazin-1-yl)-methanone]  78 nM
22. CS(=O)(=O)c1ccc(OC2CCCC2)c(C(=O)N2CCN(c3cnc4ccccc4n3)CC2)c1 [Example 1.25, (2-Cyclopentyloxy-5-methanesulfonyl-phenyl)-(4-quinoxalin-2-yl-piperazin-1-yl)-methanone]  67 nM
23. C[C@H](Oc1ccc(S(C)(=O)=O)cc1C(=O)N1CCN(c2nsc3ccccc23)CC1)C(F)(F)F [Example 1.33, (4-Benzo[d]isothiazol-3-yl-piperazin-1-yl)-[5-methanesulfonyl-2-((S)-2,2,2-trifluoro-1-methyl-ethoxy)-phenyl]-methanone]  55 nM
24. C[C@H](Oc1ccc(S(C)(=O)=O)cc1C(=O)N1CCN(c2nc3ccc(Cl)cc3s2)CC1)C(F)(F)F [Example 1.40, [4-(6-Chloro-benzothiazol-2-yl)-piperazin-1-yl]-[5-methanesulfonyl-2-((S)-2,2,2-trifluoro-1methyl-ethoxy)-phenyl]-methanone]  39 nM
